Measured values: ChEMBL document CHEMBL6071190, “Discovery of BAY 2666605, a Molecular Glue for PDE3A and SLFN12” (ACS Med Chem Lett, 2024)

Assays:
[1] = tested on: HeLa; assay: Antiproliferative activity against human HeLa cells incubated for 72 hrs by Cell Titer Glo luminescence assay; assay type: functional, cell-based
[2] = molecular target: cGMP-inhibited 3',5'-cyclic phosphodiesterase 3A (Homo sapiens, UniProt Q14432); assay: Inhibition of human full-length PDE3A expressed in Sf9 cells using [8-3H]adenosine 3', 5'-cyclic phosphate as substrate incubated for 60 mins by microbeta scintillation counting method
[3] = Selectivity ratio of IC50 for inhibition of full-length human PDE3A expressed in Sf9 cells to EC50 for antiproliferative activity against human HeLa cells
[4] = tested on: SK-MEL3; assay: Antiproliferative activity against human SK-MEL3 cells incubated for 72 hrs by Cell Titer Glo luminescence assay; assay type: functional, cell-based; conditions: SK-MEL3, 72 h
[5] = Metabolic stability in rat hepatocytes assessed as bioavailability at 1 uM measured upto 90 mins by LC-MS/MS analysis; assay type: ADME, Hepatocyte
[6] = Metabolic stability in mouse hepatocytes assessed as bioavailability at 1 uM measured upto 90 mins by LC-MS/MS analysis; assay type: ADME, Hepatocyte
[7] = tested on: Hs-578T; assay: Antiproliferative activity against human Hs-578T cells incubated for 72 hrs by Cell Titer Glo luminescence assay; assay type: functional, cell-based
[8] = tested on: DK-MG; assay: Antiproliferative activity against human DK-MG cells incubated for 72 hrs by Cell Titer Glo luminescence assay; assay type: functional, cell-based
[9] = Antiproliferative activity against human NCI-H2172 cells incubated for 72 hrs by Cell Titer Glo luminescence assay; assay type: functional, cell-based; conditions: NCI-H2172, 72 h
[10] = Antiproliferative activity against human NCI-H196 cells incubated for 72 hrs by Cell Titer Glo luminescence assay; assay type: functional, cell-based; conditions: NCI-H196, 72 h
[11] = tested on: A2058; assay: Antiproliferative activity against human A2058 cells incubated for 72 hrs by Cell Titer Glo luminescence assay; assay type: functional, cell-based; conditions: A2058, 72 h
[12] = tested on: C32; assay: Antiproliferative activity against human C32 cells incubated for 72 hrs by Cell Titer Glo luminescence assay; assay type: functional, cell-based; conditions: C32, 72 h
[13] = tested on: RVH-421; assay: Antiproliferative activity against human RVH-421 cells incubated for 72 hrs by Cell Titer Glo luminescence assay; assay type: functional, cell-based; conditions: RVH-421, 72 h
[14] = Antiproliferative activity against human L3.3 cells incubated for 72 hrs by Cell Titer Glo luminescence assay; assay type: functional, cell-based; conditions: L3.3, 72 h
[15] = Clearance in rat blood; assay type: ADME, tissue-based
[16] = Clearance in mouse blood; assay type: ADME, tissue-based
[17] = Metabolic stability in dog hepatocytes assessed as bioavailability at 1 uM measured upto 90 mins by LC-MS/MS analysis; assay type: ADME, Canis lupus familiaris, Hepatocyte
[18] = Metabolic stability in human hepatocytes assessed as bioavailability at 1 uM measured upto 90 mins by LC-MS/MS analysis; assay type: ADME, Hepatocyte
[19] = Half life in iv dosed mouse; assay type: ADME, organism-based; conditions: in vivo
[20] = Half life in iv dosed rat; assay type: ADME, organism-based; conditions: in vivo
[21] = Half life in iv dosed dog; assay type: ADME, organism-based, Canis lupus familiaris; conditions: in vivo
[22] = Oral bioavailability in rat; assay type: ADME, organism-based; conditions: in vivo
[23] = Oral bioavailability in dog; assay type: ADME, organism-based, Canis lupus familiaris; conditions: in vivo
[24] = Protein binding in plasma (unknown origin); assay type: ADME, cell-free; conditions: read-out: PPB (converted)
[25] = tested on: IGR-37 cell line; assay: Antitumor activity against human IGR-37 cells xenografted in po dosed NMRI nude mouse assessed as tumor growth inhibition administered twice daily; assay type: functional, organism-based; conditions: dose 0.5-2.5 mg/kg
[26] = Toxicity in NOD-SCID mouse assessed as tolerability at 10 mg/kg, po BID; assay type: organism-based; conditions: in vivo
[27] = Toxicity in NOD-SCID mouse assessed as weight loss at 10 mg/kg, po BID; assay type: organism-based; conditions: in vivo
[28] = tested on: GB-1; assay: Antiproliferative activity against human GB-1 cells incubated for 72 hrs by CellTiter-Glo luminescence assay; assay type: functional, cell-based; conditions: GB-1, 72 h
[29] = Antiproliferative activity against human IGR-37 cell line; assay type: functional, cell-based
[30] = Oral bioavailability in mouse; assay type: ADME, organism-based; conditions: in vivo

Chain of cGMP-inhibited 3',5'-cyclic phosphodiesterase 3A (Q14432 whole entry): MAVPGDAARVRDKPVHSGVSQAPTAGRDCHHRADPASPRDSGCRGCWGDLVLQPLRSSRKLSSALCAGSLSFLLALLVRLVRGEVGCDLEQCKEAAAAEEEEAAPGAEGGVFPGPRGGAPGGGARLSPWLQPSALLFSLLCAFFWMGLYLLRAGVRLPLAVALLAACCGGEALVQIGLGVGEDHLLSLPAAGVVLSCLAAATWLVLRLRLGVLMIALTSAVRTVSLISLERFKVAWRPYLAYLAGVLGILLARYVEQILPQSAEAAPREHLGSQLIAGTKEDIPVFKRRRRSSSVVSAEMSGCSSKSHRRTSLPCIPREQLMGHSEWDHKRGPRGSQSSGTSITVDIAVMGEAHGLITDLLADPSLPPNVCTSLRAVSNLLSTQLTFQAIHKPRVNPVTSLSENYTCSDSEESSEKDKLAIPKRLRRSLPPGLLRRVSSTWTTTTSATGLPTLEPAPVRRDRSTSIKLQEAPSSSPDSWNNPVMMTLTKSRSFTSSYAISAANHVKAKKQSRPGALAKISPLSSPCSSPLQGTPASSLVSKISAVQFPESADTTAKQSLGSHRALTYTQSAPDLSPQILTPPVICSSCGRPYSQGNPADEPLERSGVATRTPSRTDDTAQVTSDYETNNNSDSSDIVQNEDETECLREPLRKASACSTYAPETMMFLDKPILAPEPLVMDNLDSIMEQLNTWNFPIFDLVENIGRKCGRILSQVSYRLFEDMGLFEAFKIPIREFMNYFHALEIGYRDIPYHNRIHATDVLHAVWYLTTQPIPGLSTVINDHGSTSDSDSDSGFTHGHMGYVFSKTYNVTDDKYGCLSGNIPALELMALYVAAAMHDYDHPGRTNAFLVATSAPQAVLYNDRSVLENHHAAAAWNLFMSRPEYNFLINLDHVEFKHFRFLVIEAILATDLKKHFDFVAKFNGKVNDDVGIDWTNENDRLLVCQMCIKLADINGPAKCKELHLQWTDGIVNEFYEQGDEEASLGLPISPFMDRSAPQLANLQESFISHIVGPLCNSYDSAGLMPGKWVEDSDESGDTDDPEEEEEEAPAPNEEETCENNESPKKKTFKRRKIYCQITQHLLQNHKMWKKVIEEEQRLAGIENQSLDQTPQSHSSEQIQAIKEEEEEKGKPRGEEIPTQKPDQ

C[C@@H]1OC(=O)NN=C1c1ccc(-n2cc(C(F)(F)F)cn2)c(C(F)(F)F)c1
EC50 [1]: 2.29 nM
IC50 [2]: 607 nM
Ratio IC50/EC50 [3]: 265
EC50 [4]: 5.26 nM
predicted hepatic bioavailability (Fh) from hepatocyte stability at 1 µM [5]: 93%
Fh at 1.5 h, 1 µM [6]: 63%
EC50 [7]: 116 nM
EC50 [8]: 59 nM
EC50 [9]: 101 nM
EC50 [10]: 355 nM
EC50 [11]: 96 nM
EC50 [12]: 132 nM
EC50 [13]: 262 nM
EC50 [14]: 312 nM
clearance [15]: 8.17 mL/min/kg
clearance [16]: 18.3 mL/min/kg
Fh at 1.5 h, 1 µM [17]: 87%
hepatic bioavailability predicted from hepatocyte stability (Fh) at 1 µM [18]: 79%

C[C@@H]1OC(=O)NN=C1c1ccc(-c2cnn(C(F)F)c2)c(C(F)(F)F)c1
EC50 [1]: 0.18 nM
IC50 [2]: 37 nM
Ratio IC50/EC50 [3]: 202
EC50 [4]: 0.38 nM
predicted hepatic bioavailability (Fh) from hepatocyte stability at 1 µM [5]: 99%
Fh at 1.5 h, 1 µM [6]: 27%
EC50 [7]: 20 nM
EC50 [8]: 13 nM
EC50 [9]: 37 nM
EC50 [10]: 32 nM
EC50 [11]: 25 nM
EC50 [12]: 52 nM
EC50 [13]: 47 nM
EC50 [14]: 15 nM
clearance [16]: 197 mL/min/kg
Fh at 1.5 h, 1 µM [17]: 69%
hepatic bioavailability predicted from hepatocyte stability (Fh) at 1 µM [18]: 32%

C[C@@H]1OC(=O)NN=C1c1ccc(-c2ccc(F)cc2)c(C(F)(F)F)c1
EC50 [1]: 1.04 nM
IC50 [2]: 82 nM
Ratio IC50/EC50 [3]: 79
EC50 [4]: 2.81 nM
predicted hepatic bioavailability (Fh) from hepatocyte stability at 1 µM [5]: 94%
Fh at 1.5 h, 1 µM [6]: 85%
EC50 [7]: 33 nM
EC50 [8]: 22 nM
EC50 [9]: 38 nM
EC50 [10]: 150 nM
EC50 [11]: 38 nM
EC50 [12]: 58 nM
EC50 [13]: 140 nM
EC50 [14]: 82 nM
clearance [15]: 4.17 mL/min/kg
clearance [16]: 12.5 mL/min/kg
half-life [19]: 4.6 h
half-life [20]: 15 h
half-life [21]: 13 h
bioavailability [22]: > 95%
bioavailability [23]: > 95%
fraction unbound [24]: 0.002
Activity [25]: Dose-Dependent Effect
Activity [26]: Non-Toxic
Activity [27]: Non-Toxic
EC50 [28]: 8 nM
EC50 [29]: 3.1 nM
Fh at 1.5 h, 1 µM [17]: 70%
hepatic bioavailability predicted from hepatocyte stability (Fh) at 1 µM [18]: 73%
bioavailability [30]: > 95%
